Assay results as given in patent publication US6110895A, “Method of promoting healing in skin grafts” (University of Southern California, priority 1997, dated 2000).

Assays:
[1] = test system: full thickness dermal wounds; test: Healing of full thickness dermal wounds with AIII (Example 3); type: in vivo, Sprague Dawley rats; details: 2×2 cm wounds; 3 μg and 10 μg dosages; FIG. 8
From the text: Twelve week old male Sprague Dawley rats were obtained from Simonsen Laboratories (Gilroy, Calif.). On the date of surgery, rats received intramuscular ketamine/rompum anesthesia prior to preparation for surgery. The rats were shaved and scrubbed with betadine. Four 2×2 cm full thickness dermal wounds were created on the dorsal surface of the rat. Following excision of the skin, the size of the wound was outlined on a glass slide to establish the baseline wound size. The medicament was administered in 100 μl of a solution comprising 10% HYDRON, 1% polyethylene glycol (MW 400) and 60% ethanol. Test materials were administered in a randomized fashion. AIII was evaluated at 3 and 10 μg/wound. Controls were treated with vehicle only. After administration of the materials, the rats were bandaged and allowed to recover from anesthesia. At days 2, 5, 6, 8 and 10 the area of the skin wounds were measured under methoxyflurane anesthesia. The area of the wound was determined by: (1) tracing the wound shape onto graph paper (1×1 mm squares); (2) cutting out the shape; (3) weighing the paper and comparing the weight with a 2×2 cm paper cutout; and (4) counting the number of squares.

aminopeptidase = details: reported in literature; cited from earlier work
rat carotid artery = details: cited from earlier work; for neointimal formation: similar model, Janiak et al. 1992, CGP 42112 infused perivascularly 14 days, losartan low doses
[2] = test system: full thickness dermal wounds; test: Wound closure by analogs of AII and AIII, Table 4 (Example 7); type: in vivo, Sprague Dawley rats; details: percentage of vehicle-treated control wound, method of Example 6 (100 μg/wound, days 0-4)
From the text: Female Sprague Dawley rats weighing 175-200 grams were obtained from Simonsen Laboratories (Gilroy, Calif.). On the day of surgery, rats received intramuscular ketamine/rompum anesthesia prior to preparation for surgery. The rats were shaved and scrubbed with betadine. Two 1.5×1.5 cm full thickness dermal wounds were created on the dorsal surface of each rat. Following excision of the skin, the size of the wound was outlined on a glass slide to establish the baseline wound size. The medicament was administered in 100 μl of 10% low viscosity carboxymethyl cellulose (Sigma). The p-NH2 -Phe6-AII test material was administered in a randomized fashion with all materials being tested at 100 μg/wound. Control wounds were treated with vehicle only. After administration of the materials, the rats were bandaged and allowed to recovery from anesthesia. The rats were treated with an additional 100 μg of peptide formulation on days 1-4 after surgery. On days 2, 4, 7 and 9 the area of the skin wounds were measured under methoxyflurane anesthesia. The area of the wound was determined by: (1) tracing the wound shape onto graph paper (1×1 mm squares); (2) cutting out the shape; (3) weighing the paper and comparing the weight with a 1.5×1.5 cm paper cutout; and (4) counting the number of squares on the graph paper. In addition, on days 2, 4 and 7 the area of granulation tissue was similarly determined.
Analogs of AII and AIII having the structures disclosed in Table 4 were prepared using an automated peptide synthesizer and methods familiar to those having ordinary skill in the art. Each of the analogs was tested for its ability to accelerate wound healing essentially according to the method of Example 6. Results of procedures used to determine the extent of wound closure at days 4 and 9 measured as a percentage of a vehicle-treated control wound are also presented in Table 4. Since all of the analogs were not tested during the same experimental procedure, AII was included as a positive control for each group of peptides tested. As designated below, peptide analogs are identified as analogs of AII or AIII having amino acid substitutions at positions indicated by superscripts. Thus, for example, Gly^4 -AIII is the designation for an AIII analog having a Gly residue substituted at position 4 of AIII. Results from procedures using analogs that were tested as a group are grouped together in the following Table.

[3] = cited from earlier work
[4] = intracerebroventricular infusion at concentrations 1,000 times higher than that of AII; cited from earlier work

CC[C@H](C)[C@H](NC(=O)[C@H](Cc1ccc(O)cc1)NC(=O)[C@@H](NC(=O)[C@@H](N)CCCNC(=N)N)C(C)C)C(=O)N[C@@H](Cc1c[nH]cn1)C(=O)N1CCC[C@H]1C(=O)N[C@@H](Cc1ccccc1)C(=O)O [AIII, Arg-Val-Tyr-Ile-His-Pro-Phe]
wound closure relative to vehicle-treated control [1]: substantially accelerated

CC[C@H](C)[C@H](NC(=O)[C@H](Cc1ccc(O)cc1)NC(=O)[C@@H](NC(=O)[C@H](CCCNC(=N)N)NC(=O)CNC)C(C)C)C(=O)N[C@@H](Cc1cnc[nH]1)C(=O)N1CCC[C@H]1C(=O)N[C@@H](Cc1ccccc1)C(=O)O [Analog 4, Sar-Arg-Val-Tyr-Ile-His-Pro-Phe]
cleavage by aminopeptidase (aminopeptidase): resistant to cleavage by aminopeptidase

Cc1cc(Cn2cnc3c2C[C@@H](C(=O)O)N(C(=O)C(c2ccccc2)c2ccccc2)C3)ccc1N(C)C [PD 123319]
reduction of intimal hyperplasia (rat carotid artery; Pratt et al. 1992): 73%

CCCCc1nc(Cl)c(CO)n1Cc1ccc(-c2ccccc2-c2nn[nH]n2)cc1 [losartan]
decrease of intimal area (rat carotid artery; Pratt et al. 1992): 95% | neointimal formation, higher doses (rat carotid artery; other studies, losartan at higher doses): effective | neointimal formation (rat carotid artery): ineffective

Asp-Arg-Val-Tyr(PO3)2 -Ile-His-Pro-Phe [[Tyr(PO3)2]^4 -AII]
extent of wound closure, % Control (Day 4) [2]: 81.3% | extent of wound closure, % Control (Day 9) [2]: 61.9%

Asp-Arg-Val-Tyr-Ile-His-Pro (DRVYIHP; printed: Asp-Arg-Val-Tyr-Ile-His-Pro) [AII(1-7)]
amount needed for pressor response comparable to AII ([3]; Benter et al. 1993): about 10,000 times | dose effective on blood pressure relative to the dose of AII ([3]; depending on model and route of administration): 10,000-100,000 times

CGP 42112
neointimal formation (rat carotid artery): prevented neointimal formation

Ile-His-Pro-Phe (IHPF; printed: Ile-His-Pro-Phe) [AII(5-8)]
effect on blood pressure [4]: minimal effect on blood pressure

homoSer^4 -AII [GSD41B]
extent of wound closure, % Control (Day 4) [2]: 77.6% | extent of wound closure, % Control (Day 9) [2]: 55.8%
